Reference: patent US6596873B1, “2-and 2,5-substituted phenylketoenols” (Bayer Aktiengesellschaft, priority 1996, dated 2003)

How the values were obtained:
Assay type in all cases: in vivo
[1] = system: mustard beetle larvae (Phaedon cochleariae); test: Phaedon larvae test; conditions: active compound concentration of 0.1%, after 7 days; cabbage leaves dipped
Method: (§1) Phaedon Larvae Test [table] To produce a suitable preparation of active compound, 1 part by weight of active compound is mixed with the stated amount of solvent and the stated amount of emulsifier, and the concentrate is diluted with water to the desired concentration. Cabbage leaves (Brassica oleracea) are treated by being dipped into the preparation of the active compound of the desired concentration and are infested with mustard beetle larvae (Phaedon cochleariae) while the leaves are still moist. After the specified period of time, the destruction in % is determined. 100% means that all the beetle larvae have been killed; 0% means that none of the beetle larvae have been killed.

[2] = system: caterpillars of the owlet moth (Spodoptera frugiperda); test: Spodoptera test; conditions: active compound concentration of 0.1%, after 7 days; cabbage leaves dipped
Method: To produce a suitable preparation of active compound, 1 part by weight of active compound is mixed with the stated amount of solvent and the stated amount of emulsifier, an d the concentrate is diluted with water to the d esired concentration.
Cabbage leaves (Brassica oleracea) are treated by being dipped into the preparation of the active compound of the desired concentration and are infested with caterpillars of the owlet moth (Spodoptera frugiperda) as long, as the leaves are still moist.
After the specified period of time, the destruction in % is determined. 100% means that all the caterpillars have been killed; 0% means that none of the caterpiliars have been killed.

[3] = system: larvae of the green rice leaf hopper (Nephotettix cincticeps); test: Nephotettix test; conditions: active compound concentration of 0.1%, after 6 days; rice seedlings dipped
Method: as §1, with “Nephotettix” for “Phaedon Larvae”, “Rice seedlings (Oryzae sativa)” for “Cabbage leaves (Brassica oleracea)”, “with” for “with mustard beetle”, “of the green rice leaf hopper (Nephotettix cincticeps)” for “(Phaedon cochleariae)”, “seedlings” for “leaves”, “the” for “the beetle”

[4] = system: fruit tree spider mite (Panonychus ulmi); test: Panonychus test; conditions: active compound concentration of 0.004%, after 7 days; plum trees sprayed
Method: Panonychus Test [table] To prepare a suitable preparation of active compound, 1 part by weight of active compound is mixed with the stated amount of solvent and the stated amount of emulsifier, and the concentrate is diluted with water to the desired concentration. Plum trees (Prunus domestica) approximately 30 cm in height which are severely infested by all stages of the fruit tree spider mite (Panonychus ulmi) are sprayed with an active compound preparation of the desired concentration. After the specified period of time, the destruction in % is determined. 100% means that all the spider mites have been killed; 0% means that none of the spider mites have been killed.

[5] = system: caterpillars of the diamond-back moth (Plutella maculipennis); test: Plutella test; conditions: active compound concentration of 0.1%, after 7 days; cabbage leaves dipped
Method: Plutella Test [table] To produce a suitable preparation of active compound, 1 part by weight of active compound is mixed with the stated amount of solvent and the stated amount of emulsifier, and the concentrate is diluted with water to the desired concentration. Cabbage leaves (Brassica oleracea) are treated by being dipped into the preparation of active compound of the desired concentration and are infested with caterpillars of the diamond-back moth (Plutella maculipennis) while the leaves are still moist. After the specified period of time, the destruction in % is determined. 100% means that all the caterpillars have been killed, 0% means that none of the caterpillars have been killed.

Structure (SMILES) | destruction in % [1] | destruction in % [2] | destruction in % [3] | efficacy (destruction in %) [4] | destruction in % [5]
Cc1ccccc1C1=C(O)C2(CCC(C)CC2)NC1=O (centres unmarked) [Example I-1-a-1] | 100% | 85% | 100% | – | –
CC(C)(C)C(=O)OC1=C(c2ccccc2Cl)C(=O)OC12CCCCC2 [Example I-2-b-1] | – | – | – | 100% | –
Cc1ccccc1-c1c(O)c(C)c(-c2ccccn2)oc1=O [Example I-4-a-1] | 100% | 85% | 100% | – | 100%
